Here are results for five molecules from patent publication US11278543B2, “Inhibitors of the PP1/GADD34 complex for the treatment of a condition requiring an immunosuppressive activity” (INSERM, priority 2009, dated 2022).

One assay concerns P-eIF2-α. Put plainly: eIF2-α phosphorylation (P-eIF2-α) immunoblot in DCs. Type of assay: cell-based, mouse. As to conditions: for eIF2-α phosphorylation in presence of soluble poly I:C: DCs activated with soluble poly I:C 24 h, 75 μM salubrinal for the last 4 h. On the procedure:
(§1) Bone marrow-derived DCs were obtained and cultured as described previously^50. NIH3T3 cells were cultured in RPMI 1640 (GIBCO) supplemented with 10% FCS (HyClone, PERBIO), 100 units/ml penicillin and 100 μg/ml streptomycin (GIBCO). Wild-type and PKR^−/− MEFs (from Caetano Reis e Sousa) were cultured in DMEM, 10% FCS, pen/strep. Wild-type and GCN2^−/− MEFs (from David Ron) were cultured in RPMI, 10% FCS, pen/strep, MEM non-essential amino acids (GIBCO), 55 μM beta-mercaptoethanol. For the tryptophan starvation experiments, MEFs and DCs were cultured for the indicated time in RPMI 1640 Tryptophan—medium (21875, GIBCO). All cells were cultured at 37° C. and 5% CO2.
(§2) MEFs, NIH3T3 and immature DCs were treated for the indicated time with 10 μg/ml poly I:C (InvivoGen), alone or in combination with lipofectamine 2000 (Invitrogen). 2 μg/ml tunicamycin (SIGMA) was added to DCs for 2 h; 2 μM MG132 (BIOMOL International) was added to DCs and NIH3T3 4 h before harvesting; 75 μM salubrinal (Calbiochem) or 100 nM tautomycin (Calbiochem) were added to DCs 4 h before harvesting; 500 μM sodium arsenite (SIGMA) was added for 30 min to DCs, NIH3T3 and MEFs; 50 μM LY294002 (Calbiochem) was added to DCs 1 h before harvesting. Immature DCs were treated for the indicated time with 100 ng/ml LPS (SIGMA).
(§3) Cells were lysed in 1% Triton X-100, 50 mM Hepes, 10 mM NaCl, 2.5 mM MgCl2, 2 mM EDTA, 10% glycerol, 1 mM PMSF, supplemented with Complete Mini Protease Inhibitor Cocktail Tablets (Roche). Protein quantification was performed using the BCA Protein Assay (Pierce). 25-50 μg of Triton X-100-soluble material were loaded on 2%-12% gradient SDS-PAGE before immunoblotting and chemiluminescence detection (SuperSignal West Pico Chemiluminescent Substrate, Pierce). Nuclear extraction was performed using the Nuclear Complex Co-IP kit (Active Motif). Rabbit polyclonal antibodies against ATF4 (CREB-2, C-20) and eIF2α (FL-315) were from Santa Cruz Biotechnology, as well as mouse monoclonal against GADD34 (C-19) and PKR (B-10). Rabbit polyclonal antibodies against P-eIF2α (Ser 51) and caspase-3 were from BioSource and Cell Signaling Technology respectively. Mouse monoclonal antibodies against β-actin and histone H1 were from SIGMA and Upstate respectively. Secondary antibodies were from Jackson ImmunoResearch Laboratories. Quantification of eIF2α phosphorylation was performed using the Multi Gauge software (Fujifilm).

The subject of assay [1] is DCs. Nature of the assay: Translation intensity measurement by puromycin labelling in DCs. The class given is cell-based, mouse. The method, then:
MEFs, NIH3T3 and immature DCs were treated for the indicated time with 10 μg/ml poly I:C (InvivoGen), alone or in combination with lipofectamine 2000 (Invitrogen). 2 μg/ml tunicamycin (SIGMA) was added to DCs for 2 h; 2 μM MG132 (BIOMOL International) was added to DCs and NIH3T3 4 h before harvesting; […]; 500 μM sodium arsenite (SIGMA) was added for 30 min to DCs, NIH3T3 and MEFs; 50 μM LY294002 (Calbiochem) was added to DCs 1 h before harvesting. Immature DCs were treated for the indicated time with 100 ng/ml LPS (SIGMA).
Puromycin labelling for measuring the intensity of translation was performed using 10 μg/ml puromycin (SIGMA, min 98% TLC, cell culture tested, P8833, diluted in PBS) was added in the culture medium and the cells were incubated for 10 min at 37° C. and 5% CO2. Where indicated, 25 μM cycloheximide (SIGMA) was added 5 min before puromycin. Cells were then harvested, centrifugated at 4° C. and washed with cold PBS prior to cell lysis and immunoblotting with the 12D10 antibody.
Cells were lysed in 1% Triton X-100, 50 mM Hepes, 10 mM NaCl, 2.5 mM MgCl2, 2 mM EDTA, 10% glycerol, 1 mM PMSF, supplemented with Complete Mini Protease Inhibitor Cocktail Tablets (Roche). Protein quantification was performed using the BCA Protein Assay (Pierce). […] Quantification of eIF2α phosphorylation was performed using the Multi Gauge software (Fujifilm).

For another assay, the system named is IFN-β. Put plainly: IFN-β ELISA in culture supernatant of activated DCs. The class given is cell-based, mouse. The note with it: poly I:C (or LPS) 8 h, salubrinal added 2 h before stimulation. On the procedure: (§4) […] Immature DCs were treated for the indicated time with 100 ng/ml LPS (SIGMA).
IFN-β quantification in culture supernatant of DCs (5 fold-diluted) was performed using the Mouse Interferon Beta ELISA kit (PBL InterferonSource) according to manufacturer instructions.
(In general: An ELISA detects its analyte on a solid surface through an enzyme-linked reagent.)

The test system of the next assay is caspase-3. Put plainly: Caspase-3 level and cleavage by immunoblot in DCs. The class given is cell-based, mouse. On the procedure:
as §4, §3
(In general: In western blotting, separated proteins are transferred to a membrane and probed.)

Assay [2] concerns DCs. Nature of the assay: mRNA quantification by real-time RT-PCR in poly I:C stimulated DCs. The class given is cell-based, mouse. The note with it: qPCR. The method, then:
as §2
Total RNA was isolated from DCs using the RNeasy miniprep kit (Qiagen). cDNA was synthesized from RNA samples using the Superscript II reverse transcriptase (Invitrogen). Quantitative real-time PCR was carried out in complete SYBR Green PCR buffer (PE Biosystem) by using 200 nM of each specific primer. A total of 20 μl of PCR mix was added to 5 μl of cDNA template, and the amplification was tracked via SYBR Green incorporation by using a Stratagene sequence detection system. cDNA concentration in each sample were normalized by using HPRT. A nontemplate control was also routinely performed. Primers used for gene amplification (designed with the Primer3 software) have been generated.
A general note: Quantitative PCR measures a nucleic acid by following its amplification.

The subject of assay [3] is DCs. Put plainly: Stress granule formation in DCs (mRNA in situ hybridization, confocal microscopy). The class given is cell-based, mouse.
A further assay has as its system MEFs and NIH3T3. Nature of the assay: Translation monitoring in MEFs and NIH3T3 exposed to poly I:C. The class given is cell-based, mouse. As to conditions: lipofected poly I:C, within 4 to 8 hours. On the procedure: as §1
as §2, with “(SIGMA). […]” for “(SIGMA).”

The test system of a further assay is ATF4. Put plainly: ATF4 protein immunoblot in nuclear extract of DCs. Type of assay: cell-based, mouse. The note with it: poly I:C, 8 h. On the procedure:
as §2
Cells were lysed in 1% Triton X-100, 50 mM Hepes, 10 mM NaCl, 2.5 mM MgCl2, 2 mM EDTA, 10% glycerol, 1 mM PMSF, supplemented with Complete Mini Protease Inhibitor Cocktail Tablets (Roche). Protein quantification was performed using the BCA Protein Assay (Pierce). 25-50 μg of Triton X-100-soluble material were loaded on 2%-12% gradient SDS-PAGE before immunoblotting and chemiluminescence detection (SuperSignal West Pico Chemiluminescent Substrate, Pierce). Nuclear extraction was performed using the Nuclear Complex Co-IP kit (Active Motif). […] Quantification of eIF2α phosphorylation was performed using the Multi Gauge software (Fujifilm).

For a further assay, the system named is CHIKV. As to conditions: murine IFN-β added 3 h before infection, 10 MOI, GFP expression at 24 h.

With `O=C(/C=C/c1ccccc1)NC(NC(=S)Nc1cccc2cccnc12)C(Cl)(Cl)Cl` (centres unmarked) [salubrinal], the figures for the “eIF2-α phosphorylation in presence of soluble poly I:C” value with P-eIF2-α and with P-eIF2-α (listed as Salubrinal) were “strongly accentuates eIF2-α phosphorylation” and “considerably enhanced”, respectively. The eIF2-α phosphorylation result with P-eIF2-α (DCs, salubrinal alone, 75 μM, 4 h before harvesting) was “induced eIF2-α phosphorylation”. The “Protein synthesis in poly I:C stimulated DCs” value in the assay on DCs [1] (poly I:C 4 or 8 h, salubrinal added 2 h before stimulation) was “strongly reduced”. Also, the “IFN-β secretion by activated DCs” value in the assay on IFN-β is on record as “drastically reduced”. Also, in the assay on caspase-3 (DCs stimulated 8 h, salubrinal added 2 h before), the “Caspase-3 levels and cleavage, salubrinal with poly I:C or LPS” value was “lighter effect than salubrinal alone”. In addition, in the assay with caspase-3 (DCs, salubrinal treatment alone), the “Total levels of caspase-3 and its cleaved active product” value is “massive increase”.
Take `CO[C@H]([C@H](O)CC(=O)[C@@H](C)[C@@H](O)CC[C@@H](C)[C@@H]1O[C@]2(CC[C@@H](C)[C@H](CC[C@H](C)C(C)=O)O2)CC[C@@H]1C)[C@H](OC(=O)C[C@@H](O)C1=C(C)C(=O)OC1=O)C(C)C` [tautomycin]: in the assay on P-eIF2-α (DCs, 100 nM tautomycin 4 h before harvesting, with or without poly I:C), the “eIF2-α phosphorylation (same experiments as with salubrinal)” value is listed as “confirmed”.
Turning to “polyinosinic:polycytidylic acid [poly I:C]”, the “P-eIF2-α levels during poly I:C stimulation” value in the assay with P-eIF2-α (DCs, soluble poly I:C time course) is listed as “gradually reduced”. In addition, the “Translation in DCs exposed to lipofected poly I:C” value in the assay on DCs [1] (after 8 hours of exposure) is “translation was not inhibited”. Besides, the “Caspase-3 levels and cleavage, stimulus alone” value with caspase-3 (DCs, 8 h, no salubrinal) is “little effect”. Further, in the assay on DCs [2] (10 μg/ml poly I:C), the “ATF4 mRNA expression increase” value is on record as 2 folds and the “CHOP mRNA expression increase” value is on record as 8 folds. Besides, in the assay on DCs [2] (poly I:C), the “CReP mRNA expression” value is listed as “induced only very modestly” and the “PP1 mRNA expression” value is listed as “only modestly increased”. Also, the “Proportion of DCs bearing stress granules upon activation” value in the assay on DCs [3] (DCs activated with poly I:C or LPS, 500 μM sodium arsenite for the last 30 min) is 15%. The “Translation in MEFs (wt) and NIH3T3” value with MEFs and NIH3T3 is “efficiently induced PKR-dependent translation arrest”. Besides, the “ATF4 translation (protein level)” value in the assay with ATF4 was “strongly up-regulated”.
As for sodium arsenite, the “Proportion of DCs bearing stress granules” value with DCs [3] is ~100%.

B1: IFN-β: murine interferon-β added to MEFs before CHIKV infection (protein, UniProt P01575 22-182, looked up)
Interferon beta: INYKQLQLQERTNIRKCQELLEQLNGKINLTYRADFKIPMEMTEKMQKSYTAFAIQEMLQNVFLVFRNNFSSTGWNETIVVRLLDELHQQTVFLKTVLEEKQEERLTWEMSSTALHLKSYYWRVQRYLKLMKYNSYAWMVVRAEIFRNFLIIRRLTRNFQN
As to B1, the “CHIKV replication in WT and GADD34ΔC/ΔC MEFs” value with CHIKV is “abrogation of viral replication”.
